Data on three compounds can be found in US20260138970A1, “MODULATORS OF THE CALCIUM SIGNALING CASCADE” (FONDAZIONE TELETHON ETS, priority 2022, published 2026).

Common to all, as to format: cell-based
For one test, the target named is T1, T267M ITPR1 (Homo sapiens, UniProt Q14643, T267M).
T1 construct: expressed in transfected cells
As to the kind of experiment: Fluo-4 Ca2+ assay, UTP, HEK293 cells with inducible T267M ITPR1. To be noted: UTP 5 μM; compound 10 μM; tetracycline-induced; FIG. 6B-C. On the procedure:
HEK293 cells stably transfected with tetracycline-inducible expression of wild type or mutant (R269W or T267M) ITPR1, kindly provided by Prof. S. R. Wayne Chen (University of Calgary; ref. 14), were cultured in a mixture of Dulbecco's Modified Eagle Medium (DMEM, high glucose version) and Ham's F12 (1:1) and supplemented with 10% fetal bovine serum, 2 mM L-glutamine, 100 U/ml penicillin and 100 μg/ml streptomycin. Cells were selected with 0.5 mg/ml hygromycin B and induced with 1 μg/ml tetracycline.
Experiments were performed using the microplate reader described for the HS-YFP assay. FRT and HEK293 cells were cultured until confluence in 96-well microplates (3603, Corning). Cells were washed 2 times with PBS (150 μl/wash) and then loaded for 1 h at 37° C. with 5 μM Fluo-4/AM (Thermo Fisher Scientific; catalog number: F23917) in PBS containing 10 mM glucose, 0.5 mM sulfinpyrazone, and 1% fetal bovine serum. After loading, cells were washed 2 times with PBS-glucose-sulfinpyrazone (150 μl/wash) and incubated for 20 min at 37° C. with 60 μl of PBS plus 10 mM glucose and 0.5 mM sulfinpyrazone containing compounds of interest at 10 μM final concentration or vehicle. Each well was assayed individually. Fluo-4 fluorescence (500 nm excitation, 535 nm emission) was detected every 200 ms for 16-40 s. Two seconds after the start of fluorescence recording, the reader automatically injected 165 μl of a modified PBS containing 136 mM KCl instead of NaCl. This solution also contained 10 mM glucose, 0.5 mM sulfinpyrazone, and UTP or SLIGR-NH2 (CAS #171436-38-7) at a final concentration that depended on the specific cell type. For UTP we used: 0.25 μM for FRT; 1 μM for HEKR2; 5 μM for HEK3XKO, HEKR1, and HEKR3. For SLIGR-NH2 we used: 10 μM for HEKR1; 4 μM for HEKR2. These concentrations were chosen to elicit ˜20% of maximal effect based on UTP and SLIGR-NH2 dose-response relationships. […] The Fluo-4 fluorescence increase was quantified using a procedure compiled in Microsoft Excel after background subtraction and normalization for the initial value measured before UTP addition.

A further test relates to ITPR. Kind of test: ci-IP3/PM uncaging Ca2+ imaging assay in FRT cells. The conditions noted are these: compounds 10 μM; FIG. 4. As for the experimental part:
FRT and HEK293 cells were cultured in μ-Plate96 microplates (Ibidi) at subconfluent condition. Cells were washed 2 times with PBS (150 μl/wash) and then loaded for 45 min at 37° C. with 1 μM ci-IP3/PM (Tocris; catalog number: 6210/10U) and 5 μM Fluo-4/AM (Thermo Fisher Scientific) in PBS containing 10 mM glucose, 0.5 mM sulfinpyrazone and 1% fetal bovine serum. After 45 min, cells were further incubated for 1 h at 37° C. with a fresh PBS solution containing Fluo-4/AM, glucose, sulfinpyrazone, serum, but no ci-IP3/PM. After the second loading, cells were washed 2 times with PBS-glucose-sulfinpyrazone (150 μl/wash) and incubated for 20 min at 37° C. with 125 μl of PBS plus 10 mM glucose and 0.5 mM sulfinpyrazone containing compounds of interest at 10 μM final concentration or vehicle. Each well was assayed individually using an inverted Olympus microscope equipped with 40×oil immersion objective, 530 nm emission filter, Lambda DG4 (Sutter Instrument Co., Novato, CA, USA) illumination system with a 490 nm excitation filter, (Olympus, Segrate, Italy), Prime cmos camera (Photometrics, Tucson, AZ, USA) and MetaFluor imaging acquisition software (Molecular Devices, Sunnyvale, CA, USA). Time-lapse experiments were carried out with 50 ms exposure time, 0.5 s interval and 1.8 min total duration. […] Analysis was performed with MetaFluor software, by quantifying Fluo-4 fluorescence in manually selected single cell region of interest (ROI). Eight cells were selected in each field to generate an average trace. After background subtraction, fluorescence traces were normalized for the initial value.

The test system of another test is TMEM16A. As to the kind of experiment: Short-circuit current recordings on FRT epithelia with stable expression of TMEM16A. To be noted: compounds 10 μM; UTP 0.25 μM apical; vs vehicle; FIG. 1C. As for the experimental part: Snapwell supports (3801, Corning) carrying FRT and differentiated HBEC epithelia were mounted in a vertical chamber resembling an Ussing system with internal fluid circulation (EM-CSYS-8, Physiologic Instruments, San Diego, CA, USA). For FRT epithelia, the apical and basolateral hemichambers were filled with solutions of different composition. The apical solution (5 ml) contained (in mM): 63 NaCl, 63 sodium gluconate, 0.38 KH2PO4, 2.13 K2HPO4, 2 CaCl2, 1 MgSO4, 20 Na-Hepes (pH 7.3), and 10 glucose. The basolateral solution (5 ml) instead contained (in mM): 126 KCl, 0.38 KH2PO4, 2.13 K2HPO4, 1 CaCl2, 1 MgSO4, 20 Na-Hepes (pH 7.3), and 10 glucose. Both solutions were continuously bubbled with air and the temperature of the solution was kept at 37° C. For HBECs, the same (bicarbonate-buffered) solution was used in both chambers. The composition of this solution was (in mM): 126 NaCl, 0.38 KH2PO4, 2.13 K2HPO4, 1 MgSO4, 1 CaCl2), 24 NaHCO3, and 10 glucose. Both sides were continuously bubbled with a gas mixture containing 5% CO2 and 95% air. The temperature of the solution was kept at 37° C. throughout the experiment.
Transepithelial voltage was short-circuited with a voltage-clamp (VCC MC8, Physiologic Instruments, San Diego, CA, USA) connected to the apical and basolateral chambers via Ag—AgCl electrodes and agar bridges (2% agar in 1 M KCl). The offset between voltage electrodes and the fluid resistance were cancelled before experiments. The resulting short-circuited current from each channel was recorded on a personal computer with the Acquire & Analize 2.3 software (Physiologic Instruments, San Diego, CA, USA).

T1 sequence (Q14643 whole entry T267M): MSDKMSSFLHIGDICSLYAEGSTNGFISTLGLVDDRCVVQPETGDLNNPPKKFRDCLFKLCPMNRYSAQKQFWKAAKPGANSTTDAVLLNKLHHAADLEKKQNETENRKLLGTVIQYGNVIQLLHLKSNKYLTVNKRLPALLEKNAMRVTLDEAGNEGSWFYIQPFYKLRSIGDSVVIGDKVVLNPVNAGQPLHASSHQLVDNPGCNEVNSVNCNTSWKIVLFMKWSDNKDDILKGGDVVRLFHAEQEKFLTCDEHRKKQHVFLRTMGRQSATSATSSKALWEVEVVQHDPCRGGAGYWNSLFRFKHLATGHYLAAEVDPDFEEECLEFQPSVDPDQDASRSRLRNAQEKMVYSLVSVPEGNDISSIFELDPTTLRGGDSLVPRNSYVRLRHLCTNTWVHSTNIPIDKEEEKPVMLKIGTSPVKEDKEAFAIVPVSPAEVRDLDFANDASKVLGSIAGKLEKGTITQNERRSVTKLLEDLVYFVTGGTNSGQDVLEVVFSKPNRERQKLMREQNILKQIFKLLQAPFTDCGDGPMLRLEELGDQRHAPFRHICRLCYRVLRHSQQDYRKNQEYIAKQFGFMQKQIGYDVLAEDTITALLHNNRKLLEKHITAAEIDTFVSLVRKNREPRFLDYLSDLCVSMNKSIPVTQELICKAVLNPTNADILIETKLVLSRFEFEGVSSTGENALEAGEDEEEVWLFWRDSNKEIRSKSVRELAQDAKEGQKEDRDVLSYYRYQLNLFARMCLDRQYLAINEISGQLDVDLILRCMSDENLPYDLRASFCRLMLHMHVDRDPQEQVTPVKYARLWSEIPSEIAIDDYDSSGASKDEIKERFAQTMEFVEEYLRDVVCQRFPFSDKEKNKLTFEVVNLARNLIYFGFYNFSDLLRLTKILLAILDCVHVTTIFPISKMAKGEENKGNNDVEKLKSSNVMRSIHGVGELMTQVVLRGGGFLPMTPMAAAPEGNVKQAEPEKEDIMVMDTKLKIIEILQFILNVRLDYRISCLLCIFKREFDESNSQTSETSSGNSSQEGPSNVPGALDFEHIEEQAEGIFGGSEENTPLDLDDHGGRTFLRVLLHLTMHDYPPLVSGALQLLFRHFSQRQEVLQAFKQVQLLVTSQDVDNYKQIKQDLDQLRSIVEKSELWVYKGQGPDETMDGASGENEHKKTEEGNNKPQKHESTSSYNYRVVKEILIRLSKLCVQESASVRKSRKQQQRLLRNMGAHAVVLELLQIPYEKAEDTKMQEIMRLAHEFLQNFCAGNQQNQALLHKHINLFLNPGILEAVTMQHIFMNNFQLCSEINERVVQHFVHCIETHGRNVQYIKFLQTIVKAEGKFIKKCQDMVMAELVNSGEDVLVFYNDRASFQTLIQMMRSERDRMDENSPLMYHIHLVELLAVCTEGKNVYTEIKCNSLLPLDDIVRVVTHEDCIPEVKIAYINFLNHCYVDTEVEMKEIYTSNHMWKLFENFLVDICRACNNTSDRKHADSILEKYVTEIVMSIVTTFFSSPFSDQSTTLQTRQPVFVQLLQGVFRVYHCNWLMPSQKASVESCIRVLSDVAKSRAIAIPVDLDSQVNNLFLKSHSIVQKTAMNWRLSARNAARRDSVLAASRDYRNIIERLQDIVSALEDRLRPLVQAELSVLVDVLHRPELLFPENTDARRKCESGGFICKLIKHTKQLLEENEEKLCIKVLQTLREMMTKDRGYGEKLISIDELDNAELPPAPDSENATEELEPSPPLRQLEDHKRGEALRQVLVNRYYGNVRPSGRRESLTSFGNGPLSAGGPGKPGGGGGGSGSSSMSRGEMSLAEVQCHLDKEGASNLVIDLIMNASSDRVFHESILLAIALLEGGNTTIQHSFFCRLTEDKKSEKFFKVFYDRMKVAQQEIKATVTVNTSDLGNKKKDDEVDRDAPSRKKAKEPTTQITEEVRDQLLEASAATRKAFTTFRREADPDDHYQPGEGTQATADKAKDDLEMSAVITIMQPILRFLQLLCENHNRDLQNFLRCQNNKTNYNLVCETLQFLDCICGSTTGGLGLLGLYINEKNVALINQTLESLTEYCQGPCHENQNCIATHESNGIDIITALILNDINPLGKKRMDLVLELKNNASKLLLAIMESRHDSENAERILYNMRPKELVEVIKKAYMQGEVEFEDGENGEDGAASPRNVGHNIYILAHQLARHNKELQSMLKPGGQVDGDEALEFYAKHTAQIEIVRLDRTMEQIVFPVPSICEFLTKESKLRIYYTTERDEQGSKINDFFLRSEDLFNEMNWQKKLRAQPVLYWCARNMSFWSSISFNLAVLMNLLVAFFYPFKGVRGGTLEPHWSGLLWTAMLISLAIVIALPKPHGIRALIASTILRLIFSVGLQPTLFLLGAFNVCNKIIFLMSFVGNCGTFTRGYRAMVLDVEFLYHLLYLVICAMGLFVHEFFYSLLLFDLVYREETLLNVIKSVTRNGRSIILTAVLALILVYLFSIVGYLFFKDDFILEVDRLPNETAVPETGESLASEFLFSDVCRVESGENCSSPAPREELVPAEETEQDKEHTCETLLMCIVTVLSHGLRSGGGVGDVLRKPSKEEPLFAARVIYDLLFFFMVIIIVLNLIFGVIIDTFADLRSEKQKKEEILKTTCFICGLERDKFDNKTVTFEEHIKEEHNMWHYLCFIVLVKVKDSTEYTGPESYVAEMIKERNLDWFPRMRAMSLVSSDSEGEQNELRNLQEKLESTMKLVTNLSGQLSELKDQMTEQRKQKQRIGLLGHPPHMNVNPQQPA

With `CCc1cc(-c2cc(NCCCOc3ccccc3C)nc(N)n2)n(C)n1` [ARN7149, 6-(3-Ethyl-1-methyl-1H-pyrazol-5-yl)-N^4-(3-(o-tolyloxy)propyl)pyrimidine-2,4-diamine], at T267M ITPR1, the “potentiation of Ca2+ mobilization elicited by UTP, T267M mutant” value (shortened to “potentiation”) is “also effective although less than ARN11391”. The “activity on Ca2+ mobilization by IP3 uncaging, FRT cells” value (“activity on Ca2+ mobilization” below) with ITPR was “inactive”. Further, in the test on TMEM16A, the “peak of Cl- current elicited by UTP (short-circuit current)” value (shortened to “peak of Cl- current elicited by UTP”) was “significantly enhanced”.

In the case of `CCn1nc2c(c1C(=O)Nc1ccccc1OCC1CCCCO1)CCCC2` (stereo not drawn) [ARN11391, 2-Ethyl-N-[2-(tetrahydropyran-2-ylmethoxy)phenyl]-4,5,6,7-tetrahydroindazole-3-carboxamide], the “potentiation” value at T267M ITPR1 was “marked potentiation”. The “activity on Ca2+ mobilization” value in the test with ITPR is listed as “showed activity”. The “peak of Cl- current elicited by UTP” value in the test on TMEM16A is reported as “significantly enhanced”.

With `OCc1ccccc1CN(Cc1ccnc(N2CCCC2)n1)c1ccc(F)cc1` [ARN4550, [2-[[4-Fluoro-N-[(2-pyrrolidin-1-ylpyrimidin-4-yl)methyl]anilino]methyl]phenyl]methanol], the “potentiation” value on T267M ITPR1 was “also effective although less than ARN11391”. In addition, the “activity on Ca2+ mobilization” value in the test on ITPR was “inactive”. Besides, in the test on TMEM16A, the “peak of Cl- current elicited by UTP” value is “significantly enhanced”.
